From patent US20040166060A1, “Liposomal encapsulation of alpha particle emittors and uses thereof” (Sloan Kettering Institute for Cancer Research, priority 2000, published 2004)

How the values were obtained:
[1] = Biodistribution of In-111-DTPA and large liposomes; settings: in vivo
Description: FIGS. 10A-10C depict the biodistribution of ^111In-DTPA only (FIG. 10A) zwitterionic liposomes (FIG. 10B), ^111In-DTPA cationic liposomes (FIG. 10C).
Over time the percentage per gram of tissue tested of the original amount of In-111 found in the spleen and liver increases while that in blood and other tissues such as heart, lungs, stomach, intestines, kidneys, bone, and muscle remain constant or decrease. […] Preinjection with empty large liposomes to saturate the reticuloendothelial organs will reduce non-specific radionuclide uptake by the spleen and liver.

myeloid leukemia = settings: first injection of an alpha-particle emitter to humans; cited from earlier work

Compound	tissue localization of In-111 [1]	trial outcome (myeloid leukemia)
O=C([O-])CN(CCN(CC(=O)[O-])CC(=O)[O-])CCN(CC(=O)[O-])CC(=O)[O-].[111In+3].[H+].[H+] [DTPA-chelated In-111]	localize to the kidneys more than to other tissues	
HuM195: 213Bi conjugated to the anti-CD33 antibody HuM195		feasibility and anti-cancer activity with minimal toxicity
